Where “and” joins values, the source holds several entries; their conditions need not be identical. Equal values may be shown once. Where a name gives a salt, the structure may show the parent alone.
Tests used:
Estrogen ERα = Estrogen ERα (Homo sapiens, UniProt P03372); assay: LeadProfilingScreen: Estrogen ERα; assay type: binding
[1] = tested on: macrophages and microglia in DRG tissues; assay: Immunofluorescence of macrophages and microglia in DRG tissues; assay type: in vivo, mouse; details: day 7
Method: DRG tissues were isolated on day 7 after first paclitaxel injection. The tissues were fixed in 4% paraformaldehyde at 4 °C overnight and subsequently placed in 30% sucrose for sample dehydration. During the frozen section procedure, the tissues were embedded in OCT (EMS; #14120) and sectioned into 20 μm thick slices. The DRG tissue sections were permeabilized with 0.1% Triton X-100 in PBS for 1 h and then blocked with CAS-Block solution (#008120; Thermo Fisher, USA) at room temperature for another 1 h. DRG tissue sections were stained with primary antibody against CD68 (1:100 dilution; Novus), NOS2 (1:100 dilution; Santa Cruz), Arginase-1 (1:100 dilution; Santa Cruz), and Iba-1 (1:100 dilution; Santa Cruz) at 4 °C overnight. Afterward, the samples were washed with PBS and stained with secondary antibodies (Alexa-488, 594, 1:200 dilution; Invitrogen) and Hoechst 33342 (4 μg/mL; Invitrogen) at room temperature for 1 h. A 60× objective by an Olympus FV3000 confocal microscope was used to acquire immunofluorescence images.

Purinergic P2X = assay: LeadProfilingScreen: Purinergic P2X; assay type: binding, rat; details: 10 μM
Adrenergic β1 = Adrenergic β1 (Homo sapiens, UniProt P08588); assay: LeadProfilingScreen: Adrenergic β1; assay type: binding; details: read-out: Inhibition (%), Adrenergic β1
Sequence of Adrenergic β1 (P08588 whole entry): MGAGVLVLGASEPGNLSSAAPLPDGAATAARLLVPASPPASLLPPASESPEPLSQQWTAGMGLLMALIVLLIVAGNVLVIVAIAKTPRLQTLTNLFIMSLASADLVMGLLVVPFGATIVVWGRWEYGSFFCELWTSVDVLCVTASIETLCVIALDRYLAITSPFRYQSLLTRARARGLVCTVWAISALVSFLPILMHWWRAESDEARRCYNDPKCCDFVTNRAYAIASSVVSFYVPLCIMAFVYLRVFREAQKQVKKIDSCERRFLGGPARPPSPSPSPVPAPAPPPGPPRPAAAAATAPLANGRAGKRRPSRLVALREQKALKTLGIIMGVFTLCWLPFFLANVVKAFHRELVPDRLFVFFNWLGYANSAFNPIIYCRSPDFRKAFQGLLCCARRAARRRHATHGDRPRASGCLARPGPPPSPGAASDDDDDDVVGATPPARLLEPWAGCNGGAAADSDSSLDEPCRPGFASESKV
Text: (§1) LeadProfilingScreen (Total # of Assays: 67)
(§2) To evaluate, in LeadProfilingScreen, the activity of test compound CN168 (Panlabs # 1251879). […]
(§3) Summary of Significant Results
(§4) Biochemical assay results are presented as the percent inhibition of specific binding or activity throughout the report.
(§5) All other results are expressed in terms of that assay's quantitation method.
(§6) • For primary assays, only the lowest concentration with a significant response judged by the assays' criteria, is […]
(§7) • Where applicable, either the secondary assay results with the lowest dose/concentration meeting the significance […]
(§8) • Unless otherwise requested, primary screening in duplicate with quantitative data (e.g., IC50 ± SEM, Ki ± SEM and nH) are shown where applicable for individual requested assays. In screening packages, primary screening in duplicate with semi-quantitative data (e.g., estimated IC50, Ki and nH) are shown where applicable (concentration range of 4 log units); available secondary functional assays are carried out ([…]) and MEC or MIC determined only if active in primary assays >50% at 1 log unit below initial test concentration. […]

Sodium Channel, Site 2 = assay: LeadProfilingScreen: Sodium Channel, Site 2; assay type: binding, rat; details: 10 μM
CYP 2C9 = biological target: T1, CYP 2C9 (Homo sapiens, UniProt P11712); assay: Cytochrome P450 testing, CYP 2C9; assay type: in vitro ADME; details: diclofenac 4-hydroxylation; read-out: Concentration of inhibition (IC50), CYP 2C9
T1 construct: host or cells: baculovirus-infected insect cells (supersomes)
T1 sequence (P11712 whole entry): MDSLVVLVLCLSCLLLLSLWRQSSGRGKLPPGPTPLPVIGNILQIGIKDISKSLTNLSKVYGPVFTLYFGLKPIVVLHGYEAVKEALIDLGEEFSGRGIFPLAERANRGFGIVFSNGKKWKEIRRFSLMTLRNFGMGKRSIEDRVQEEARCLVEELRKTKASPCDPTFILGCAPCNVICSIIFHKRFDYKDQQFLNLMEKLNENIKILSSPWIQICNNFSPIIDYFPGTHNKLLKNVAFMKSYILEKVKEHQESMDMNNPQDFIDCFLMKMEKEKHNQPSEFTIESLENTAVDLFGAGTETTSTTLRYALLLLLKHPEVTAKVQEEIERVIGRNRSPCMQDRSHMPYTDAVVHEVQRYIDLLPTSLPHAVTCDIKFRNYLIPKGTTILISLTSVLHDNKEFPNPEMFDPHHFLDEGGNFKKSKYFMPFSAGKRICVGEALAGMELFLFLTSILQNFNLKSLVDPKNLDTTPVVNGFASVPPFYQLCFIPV
Text: Cytochrome P450 testing of CN016
The effects of CN016 on the activity of six specific human liver cytochrome P450 isozymes (CYP 1A2, 2C9, 2C19, 2D6, 2E1, 3A4) expressed in baculovirus-infected insect cell supersomes were studied. The reactions used to measure the activity of these enzymes were phenacetin O-deethylation (1A2), diclofenac 4-hydroxylation (2C9), mephenytoin 4-hydroxylation (2C19), dextromethorphan O-demethylation (2D6), chlorzoxazone 6-hydroxylation (2E1) and testosterone 6-hydroxylation (3A4).
Furafylline, sulfaphenazole, tranylcypromine, quinidine, diethyldithiocarbamate and azamulin were used as reference inhibitors of these enzymes. Incubation mixtures containing no CN016 or reference inhibitors were used as controls. The tested result […]
Table S4. Result of Cytochrome P450 testing of CN016

[2] = biological target: Nicotinic Acetylcholine α3β4 (Homo sapiens, UniProt P30926+P32297); assay: LeadProfilingScreen: Nicotinic Acetylcholine α3β4; assay type: binding
Sequence of Nicotinic Acetylcholine α3β4 (P32297 32-505): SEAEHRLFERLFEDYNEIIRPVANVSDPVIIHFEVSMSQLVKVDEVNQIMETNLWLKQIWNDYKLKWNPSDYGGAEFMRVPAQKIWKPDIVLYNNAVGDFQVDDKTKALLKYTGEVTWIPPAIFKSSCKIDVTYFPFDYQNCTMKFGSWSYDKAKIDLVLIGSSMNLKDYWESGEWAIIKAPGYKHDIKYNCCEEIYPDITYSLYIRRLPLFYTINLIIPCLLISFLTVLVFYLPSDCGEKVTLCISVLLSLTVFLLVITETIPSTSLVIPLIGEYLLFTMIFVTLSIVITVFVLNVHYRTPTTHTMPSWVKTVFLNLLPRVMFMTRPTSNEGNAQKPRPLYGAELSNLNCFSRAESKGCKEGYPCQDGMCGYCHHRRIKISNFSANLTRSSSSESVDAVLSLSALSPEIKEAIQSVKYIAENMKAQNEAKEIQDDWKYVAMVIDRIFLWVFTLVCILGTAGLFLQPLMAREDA
Sequence of Nicotinic Acetylcholine α3β4 (P30926 26-498 limits assumed): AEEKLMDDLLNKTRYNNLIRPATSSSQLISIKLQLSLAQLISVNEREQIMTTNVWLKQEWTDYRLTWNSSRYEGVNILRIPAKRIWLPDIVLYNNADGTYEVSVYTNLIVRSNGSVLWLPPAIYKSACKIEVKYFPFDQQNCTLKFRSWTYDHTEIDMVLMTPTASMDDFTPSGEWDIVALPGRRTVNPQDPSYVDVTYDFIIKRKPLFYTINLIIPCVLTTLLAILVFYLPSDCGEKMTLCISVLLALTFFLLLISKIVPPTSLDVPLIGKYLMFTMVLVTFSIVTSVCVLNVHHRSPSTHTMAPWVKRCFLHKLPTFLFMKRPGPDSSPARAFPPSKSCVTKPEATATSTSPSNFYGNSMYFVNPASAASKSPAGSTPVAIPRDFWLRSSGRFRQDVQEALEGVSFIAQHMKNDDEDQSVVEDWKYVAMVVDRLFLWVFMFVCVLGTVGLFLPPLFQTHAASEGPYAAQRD

[3] = Pharmacokinetics after intraperitoneal administration; assay type: in vivo; details: male, ICR, mouse, plasma, 5 mg/kg, 5 mg/kg IP, at one hour
Method: Male ICR mice weighed (29–33 g) were obtained from BioLASCO (Taiwan Co., Ltd., Ilan, Taiwan). The animal studies were performed according to NHRI institutional animal care and committee-approved procedures. Food and water were available ad libitum throughout the experiment. A single 5.0 mg/kg dose of CN016 was dissolved in normal saline and was separately administered to mice intravenously. The groups consisted of three mice for each time point. At times 0.03, 0.08, 0.25, 0.5, 1, 2, 4, 6, 8, 16, and 24 h after dosing, blood was collected from groups of three mice at each time point by cardiac puncture. Plasma was separated from blood and stored in a freezer (−80 °C) before LC/MS/MS analysis. In addition, pharmacokinetic analysis of CN016 following intraperitoneal administration (IP, 5 mg/kg) is provided in Figure S2 (Supporting Information).
Figure S2. Pharmacokinetic profiles of CN016 (5 mg/kg) after intraperitoneal administration. (A) Plasma concentration-time profiles of the CN016 after intraperitoneal injection of a 5 mg/kg dose. Red Circle: a drug concentration of 10 nM.
Blue Triangle: a drug concentration of 1000 nM. (B) Pharmacokinetic parameter of CN016 after intraperitoneal administration.
The pharmacokinetics of CN016 after IP administration (5 mg/kg) is illustrated in Figure S2. […]

[4] = tested on: Purinergic P2Y, Non-Selective; assay: LeadProfilingScreen: Purinergic P2Y, Non-Selective; assay type: binding, rat; details: 10 μM
GABAA, Muscimol, Central = assay: LeadProfilingScreen: GABAA, Muscimol, Central; assay type: binding, rat; details: 10 μM
[5] = biological target: Transporter, Norepinephrine (NET) (Homo sapiens, UniProt P23975); assay: LeadProfilingScreen: Transporter, Norepinephrine (NET); assay type: binding
Sequence of Transporter, Norepinephrine (NET) (P23975 whole entry): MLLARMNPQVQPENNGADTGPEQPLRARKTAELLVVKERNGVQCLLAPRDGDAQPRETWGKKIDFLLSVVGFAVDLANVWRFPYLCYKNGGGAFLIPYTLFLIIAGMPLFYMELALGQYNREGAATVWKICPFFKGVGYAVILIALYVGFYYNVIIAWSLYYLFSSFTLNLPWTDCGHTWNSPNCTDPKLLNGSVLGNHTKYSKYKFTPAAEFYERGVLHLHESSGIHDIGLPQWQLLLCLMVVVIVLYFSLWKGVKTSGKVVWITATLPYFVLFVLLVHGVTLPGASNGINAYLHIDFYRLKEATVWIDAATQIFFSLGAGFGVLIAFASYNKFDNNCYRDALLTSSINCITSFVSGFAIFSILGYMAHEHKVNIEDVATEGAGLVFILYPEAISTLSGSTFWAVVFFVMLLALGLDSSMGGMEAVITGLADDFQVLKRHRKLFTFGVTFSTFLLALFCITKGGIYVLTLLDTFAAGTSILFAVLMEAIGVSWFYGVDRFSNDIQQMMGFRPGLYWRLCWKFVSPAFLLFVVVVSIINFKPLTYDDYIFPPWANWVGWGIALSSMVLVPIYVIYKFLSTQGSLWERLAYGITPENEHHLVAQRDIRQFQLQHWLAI

Glutamate, NMDA, Glycine = Glutamate, NMDA, Glycine (Rattus norvegicus, UniProt P35439); assay: LeadProfilingScreen: Glutamate, NMDA, Glycine; assay type: binding
Adrenergic β2 = Adrenergic β2 (Homo sapiens, UniProt P07550); assay: LeadProfilingScreen: Adrenergic β2; assay type: binding; details: read-out: Inhibition (%), Adrenergic β2
Sequence of Adrenergic β2 (P07550 whole entry): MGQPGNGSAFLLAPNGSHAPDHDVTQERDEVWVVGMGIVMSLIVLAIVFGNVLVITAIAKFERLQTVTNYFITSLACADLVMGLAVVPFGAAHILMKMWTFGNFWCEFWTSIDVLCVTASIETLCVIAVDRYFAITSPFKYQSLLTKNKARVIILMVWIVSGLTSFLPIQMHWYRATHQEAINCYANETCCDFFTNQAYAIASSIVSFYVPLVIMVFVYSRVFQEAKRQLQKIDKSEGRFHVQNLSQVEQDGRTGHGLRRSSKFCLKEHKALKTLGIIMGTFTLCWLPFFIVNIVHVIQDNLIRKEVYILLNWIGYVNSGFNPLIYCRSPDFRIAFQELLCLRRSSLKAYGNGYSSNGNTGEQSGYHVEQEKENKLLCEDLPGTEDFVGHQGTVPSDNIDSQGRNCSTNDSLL
Text: as §1, §2, §3, §4, §5, §6, §7, §8

Sequence of Estrogen ERα (P03372 whole entry): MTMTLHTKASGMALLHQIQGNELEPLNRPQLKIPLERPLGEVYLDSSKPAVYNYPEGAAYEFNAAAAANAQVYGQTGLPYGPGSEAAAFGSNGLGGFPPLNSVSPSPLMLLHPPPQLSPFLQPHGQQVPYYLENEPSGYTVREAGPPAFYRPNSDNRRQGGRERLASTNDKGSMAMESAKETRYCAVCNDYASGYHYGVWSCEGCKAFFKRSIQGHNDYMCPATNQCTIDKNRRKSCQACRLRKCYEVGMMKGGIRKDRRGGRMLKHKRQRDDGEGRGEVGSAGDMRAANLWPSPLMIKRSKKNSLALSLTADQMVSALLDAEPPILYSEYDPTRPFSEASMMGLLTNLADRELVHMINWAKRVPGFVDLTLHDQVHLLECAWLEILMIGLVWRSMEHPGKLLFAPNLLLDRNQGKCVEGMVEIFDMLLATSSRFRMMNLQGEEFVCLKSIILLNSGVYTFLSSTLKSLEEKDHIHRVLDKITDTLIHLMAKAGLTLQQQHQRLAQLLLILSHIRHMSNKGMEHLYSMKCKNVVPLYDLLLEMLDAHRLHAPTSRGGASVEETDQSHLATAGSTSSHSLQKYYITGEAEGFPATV

SMILES: O=P(O)(O)CCN1CCC(Nc2cc(N3CCOCC3)nc(NCc3cn(CCCO)nn3)n2)CC1 [CN016, {2-[4-(2-{[1-(3-Hydroxy-propyl)-1H-[1,2,3]triazol-4-ylmethyl]-amino}-6-morpholin-4-yl-pyrimidin-4-ylamino)-piperidin-1-yl]-ethyl}-phosphonic Acid Hydrobromide Salt]
- inhibition at 10 µM (Estrogen ERα): -17%
- infiltration of M1 and M2 macrophages in DRG tissues ([1]; CN016 10 or 20 mg/kg before paclitaxel): significantly diminished
- paclitaxel-induced M1 and M2 macrophages recruitment ([1]; CN016 low dosage): failed to inhibit
- paclitaxel-induced activation of M1 microglia in DRG neurons [1]: dramatically reduce
- Inhibition (%), Purinergic P2X (Purinergic P2X): -9%
- inhibition at 10 µM (Adrenergic β1): 4%
- Inhibition (%), Sodium Channel, Site 2 (Sodium Channel, Site 2): -1%
- IC50 (CYP 2C9): > 100 µM
- inhibition at 10 µM [2]: 7%
- concentration at 1 h [3]: 58 ng/mL and 84.4 nM
- Inhibition (%), Purinergic P2Y [4]: 9%
- Inhibition (%), GABAA, Muscimol, Central (GABAA, Muscimol, Central): 5%
- inhibition at 10 µM [5]: -1%
- inhibition at 10 µM (Glutamate, NMDA, Glycine): -5%
- inhibition at 10 µM (Adrenergic β2): -4%
